In data set [1] the test system is caspase 9. In words: Immunoblot of caspase 9 cleavage in HMCL. It counts as cell-based, human. The conditions noted are these: A-134974 2 μM, kinetin riboside 10 μM. How it is done:
Immunoblotting. Cytosolic extracts were prepared from HMCL or purified patient CD138^+ myeloma cells following exposure to kinetin riboside. Cells were washed with cold PBS, resuspended in cold RIPA buffer (5×10^6 cells/100 μL) containing fresh protease and phosphatase inhibitors (Santa Cruz Biotechnology, Santa Cruz, Calif.) and incubated on ice for 30 minutes with gentle mixing. The supernatant was repossessed following high speed centrifugation, and protein concentrations were determined by the Bradford assay. Immunoblot assays were performed as described elsewhere (Krajewski et al., Anal. Biochem., 236:221-228 (1996)). Briefly, equal amounts of protein were separated by SDS-PAGE and transferred to a PVDF nitrocellulose membrane using a semi-dry apparatus. Membranes were blocked using 5% skim milk in Tris buffered saline and probed with monoclonal mouse anti-cyclin D1 (DCS-6, Biosource, Camarillo, Calif.), polyclonal rabbit anti-cyclin D2 (#2924, Cell Signalling Technology), monoclonal mouse anti-cyclin D3 (DCS-22, BioSource), polyclonal rabbit anti-c-Maf (M-153, Santa Cruz), polyclonal rabbit anti-Cleaved Caspase 9 (Asp315) (Cell Signaling Technology), monoclonal mouse anti-β-actin (Cell Signaling Technology) and/or monoclonal anti-a-tubulin (B-7)(Santa Cruz Biotechnology, Santa Cruz, Calif.). […]

Data set [2] relates to NIH3T3 cells. It counts as cell-based, mouse. The conditions noted are these: MTS. On the procedure: (§1) NIH3T3 cells stably expressing c-maf and the CCND2 promoter driving luciferase (13,000 cells per well) were plated in 96-well plates by a Biomek FX liquid handler (Beckman, Fullerton, Calif.). After the cells had adhered, they were treated with aliquots of molecules from LOPAC (Sigma, St. Louis, Mo.), Prestwick (Prestwick Chemical Inc, Illkirch, France) or Spectrum (Microsource Discovery Systems, Gaylordsville, Conn.) libraries of off-patent drugs and chemicals at a final concentration of ˜5 μM and <0.1% DMSO. Cells were incubated with compounds at 37° C. for 16 hours.
(§2) Viability assay. The effects of screened compounds on cell viability was assessed by 3-(4,5-dimethyl[…])-5-(3-carboxymethoxyphenyl)-2-(4-sulfophenyl)-2-H-tetrazolium (MTS) assay according to the manufacture's instructions (Progmega, Madison, Wis.). MTS reagent (20 μL/well in 96 well plates) was added to cells, and these were then incubated at 37° C. for 4 hours. Absorbance at 490 nm was determined using a 96-well plate reader.
(§3) In an optimized automated assay, NIH3T3 cells over-expressing c-maf and the human cyclin D2 promoter driving luc were plated in 96-well plates by robot and following adhesion were treated for 16 hours with compounds at a final concentration of ˜5 μM and <0.1% DMSO. As a control, cells were treated with buffer alone. […] Thus, each compound from the library was tested in at least two assays—luciferase for CCND2 activity and MTS for viability. The coefficient of variance (CV) of the assay was <10%.

The test system of data set [3] is cyclin D1, cyclin D2, cyclin D3. The experiment in a line: Immunoblot of cyclin D proteins in HMCL. It counts as cell-based, human. The note with it: A-134974 2 μM, kinetin riboside 10 μM. On the procedure: Immunoblotting. Cytosolic extracts were prepared from HMCL or purified patient CD138^+ myeloma cells following exposure to kinetin riboside. Cells were washed with cold PBS, resuspended in cold RIPA buffer (5×10^6 cells/100 μL) containing fresh protease and phosphatase inhibitors (Santa Cruz Biotechnology, Santa Cruz, Calif.) and incubated on ice for 30 minutes with gentle mixing. The supernatant was repossessed following high speed centrifugation, and protein concentrations were determined by the Bradford assay. Immunoblot assays were performed as described elsewhere (Krajewski et al., Anal. Biochem., 236:221-228 (1996)). Briefly, equal amounts of protein were separated by SDS-PAGE and transferred to a PVDF nitrocellulose membrane using a semi-dry apparatus. Membranes were blocked using 5% skim milk in Tris buffered saline and probed with monoclonal mouse anti-cyclin D1 (DCS-6, Biosource, Camarillo, Calif.), polyclonal rabbit anti-cyclin D2 (#2924, Cell Signalling Technology), monoclonal mouse anti-cyclin D3 (DCS-22, BioSource), polyclonal rabbit anti-c-Maf (M-153, Santa Cruz), polyclonal rabbit anti-Cleaved Caspase 9 (Asp315) (Cell Signaling Technology), monoclonal mouse anti-β-actin (Cell Signaling Technology) and/or monoclonal anti-a-tubulin (B-7)(Santa Cruz Biotechnology, Santa Cruz, Calif.). Membrane proteins were visualized using HRP-conjugated species-specific secondary antibodies (Cell Signaling Technology) and enhanced chemiluminescence (Pierce, Rockford, Ill.).

Data set [4] concerns CCND2 promoter. In words: CCND2 promoter-luciferase transactivation assay in NIH3T3 cells with or without c-maf. The class given is cell-based, mouse. How it is done:
Using this assay, Lopac (n=1280), Prestwick (n=1120), and Spectrum (n=2000) libraries of drugs and natural compounds were screened. In a parallel MTS assay, the effect of each compound on 3T3 viability was determined, allowing exclusion of compounds that caused secondary suppression of CCND2 due to non-specific cytotoxicity. […] These included monensin, patulin, β-lapachone, camptothecin, dihydrogambogic acid, gentian violet, thapsigargin, brefeldin A, pristimerin, and kinetin riboside.
Full-length c-maf cDNA was subcloned into an IRES-GFP MIEV retroviral vector and introduced into NIH3T3 cells by infection. Stable clones expressing GFP and c-maf were selected by flow cytometry and immunoblotting, respectively. The promoter of human cyclin D2 (−894 to −4; Brooks et al., J. Biol. Chem., 271, 9090-9 (1996)), containing c-maf responsive element sequence (MARE), was cloned from DNA from HeLa cells and inserted into the pGLbasic firefly luciferase vector (Promega, Madison, Wis.) immediately upstream of the luciferase gene. This construct was co-transfected with pcDNA3 (containing a neomycin resistance gene) into both NIH3T3 wild type cells and NIH3T3 cells stably over-expressing c-maf-IRES-GFP. Cells stably expressing c-maf, GFP, and luciferase were selected.
as §1
Luciferase assay. Luciferase activity was assessed according to the manufacturer's instructions (Promega, Madison, Wis.). Briefly, the cell culture medium was removed using an EMBLA plate washer (Molecular Devices, X) and Glo Lysis buffer (Promega) was added by robot. After a 10-minute incubation, an equal volume of Bright-Glo Luciferase substrate (Promega) was added, and luminescence signal was detected with a 96-well Luminoskan luminescence plate reader (Thermo Labsystem, Waltham, Mass.) using a 5 second integration.
Studies of kinetin riboside using 3T3-D2-luc cells. To examine CCND2 suppression induced by kinetin riboside, the reporter cells were exposed to kinetin riboside in combination with other drugs (all purchased from Sigma, St. Loius, Mo.) that influence CCND2 transcription or inhibit nucleoside transport or phosphorylation. NIH3T3 cells expressing the CCND2 promoter driving luciferase were incubated with kinetin riboside or vehicle control +/− forskolin, 4-(3-butoxy-4-methoxybenzyl)imidazolidin-2-one (BMBI), cantharadin, S-(4-Nitrobenzyl)-6-thioinosine (NBTI), or A-134974, as specified at 5 μM concentration for 16 hours at 37° C. […] Forskolin is a cell-permeable diterpenoid that activates adenylate cyclase resulting in increased cAMP concentration. BMBI (Sigma B8279) is an inhibitor of cAMP phosphodiesterase that also causes accumulation of cAMP. Cantharadin (C7632) is an inhibitor of protein phosphatase 2A and, from the library screen, mediates induction of CCND2. NBTI (Sigma N2255) is a potent adenosine uptake inhibitor, and A-134974 (Sigma A2846) is a selective inhibitor of adenosine kinase.
as §3

Data set [5] relates to RSV promoter. The experiment in a line: Luciferase driven by RSV promoter in NIH3T3 cells (specificity control). The class given is cell-based. From the text: Exclusion of non-specific or toxic assay ‘hits.’ Drugs that decreased luciferase activity without affecting viability may cause reduced transactivation of the cyclin D2 promoter, or may act non-specifically on the activity of the luciferase enzyme. To distinguish between these two possibilities, hits were re-tested against NIH3T3 cells that over-expressed luciferase driven by an RSV promoter. […] Therefore, these drugs were excluded from further analysis.

Data set [6] relates to human myeloma cell lines (HMCL). In words: HMCL viability / cytotoxicity (MTT, MTS). The class given is cell-based. On the procedure: Subsequent validation studies using selected compounds in human myeloma cell lines (HMCL) confirmed successful suppression of both cyclin D2 and D1 polypeptides. Each of these compounds was then shown to be cytotoxic to a genetically diverse and standardized panel of 14 HMCL in MTT assays: monensin (10-760 nM), camptothecin (5-700 nM), dihydrogambogic acid (250-800 nM), pristimerin (150-500 nM), and kinetin riboside (2.5-20 μM). Cell cycle analysis confirmed induction of G0/G1 phase arrest for most compounds, consistent with cyclin D inhibition.
as §2

Data set [7] is described as follows: Pristimerin toxicity studies in mice. It counts as in vivo. The conditions noted are these: i.p. daily. How it is done:
While pristimerin is cytotoxic to HMCL and patient myeloma cells at 0.1-0.15 mg/L, toxicity studies in vivo indicate that the drug is tolerated in mice at 2.5 mg/kg i.p. daily.

Data set [8] concerns CD138− hematopoietic cells. In words: Unsorted myeloma patient bone marrow, flow cytometry: CD138- non-malignant cells. It counts as cell-based. The conditions noted are these: patient bone marrow, 48 hours. How it is done:
Flow cytometry. HMCL were treated as indicated and then washed in cold phosphate-buffered saline (PBS) and resuspended in buffer containing AnnexinV-FITC and propidium iodide (BD Biosciences, San Jose, Calif.) for 15 minutes at room temperature. Cells (10^5) were subsequently diluted and analyzed immediately by flow cytometry (FACScan, BD Biosciences, San Jose, Calif.) using CellQuest software. Patient bone marrow specimens were prepared and analyzed in a similar fashion using AnnexinV-FITC and anti-CD138-PE (BD Biosciences, San Jose, Calif.).
As mouse embryos that lack any D-cyclins eventually die from hematopoietic failure (Kozar et al., Cell, 118, 477-91 (2004)), the bone marrow might be predicted to be one of the most sensitive non-malignant tissue to be affected by drugs targeting cyclin D expression. Unsorted bone marrow samples from myeloma patients were treated with kinetin riboside to assess the relative cytotoxicity of this drug on malignant versus non-malignant marrow cells. Bone marrow samples were first processed to remove non-nucleated red cells and were then treated for 48 hours with kinetin riboside (5 μM).
Background: Flow cytometry measures light scatter and fluorescence of single cells or particles in a stream.

The text below walks through data of patent publication US8822440B2, “Inhibiting cyclin D polypeptides” (Mayo Foundation for Medical Education and Research, priority 2006, dated 2014).

Entries after “also recorded” stand apart in the source; their conditions may differ.

Take `Nc1ncnc2c1c(I)cn2[C@@H]1C[C@H](N)[C@@H](O)[C@H]1O` [A-134974]: the “effect on kinetin riboside-induced caspase 9 cleavage in HMCL” value in data set [1] was “prevents”. In addition, the “effect on NIH3T3 viability” value in data set [2] is on record as “no effect on 3T3 cell viability”. Also, the “effect on cyclin D1 and D2 levels in kinetin riboside-treated HMCL” value in data set [3] is “partially rescues”. Also, the “effect on CCND2-luc expression, agent alone” value in data set [4] (NIH3T3 reporter cells, 5 μM, 16 hours) is “minimal enhancement”. In addition, the “effect on kinetin riboside-induced suppression of CCND2” value in data set [4] (NIH3T3 reporter cells, with kinetin riboside) is “completely inhibits”.

Turning to `O=C1C=C2C(=CCOC2O)O1` (stereo not shown) [patulin], the “effect on luciferase driven by RSV promoter” value in data set [5] is reported as “non-specifically reduce luciferase activity”. Moreover, the “effect on NIH3T3 viability” value in data set [2] was “excess NIH3T3 cytoxicity”. The “identified as putative inhibitor of CCND2 transactivation (screen hit)” value in data set [4] (~5 μM, 16 hours, hit = 50% or more reduction in luciferase relative to cell viability) was “putative CCND2 inhibitors; also recorded: putative suppressors of CCND2”.

In data set [6] (HMCL and patient myeloma cells), `COC(=O)[C@]1(C)CC[C@]2(C)CC[C@]3(C)C4=CC=C5C(=CC(=O)C(O)=C5C)[C@]4(C)CC[C@@]3(C)[C@@H]2C1` [pristimerin] displayed a cytotoxic concentration of 0.1 to 0.15 mg/L. In data set [6] (MTT assays, 14 HMCL), the “cytotoxic concentration across panel of 14 HMCL” value was 150 to 500 nM. Also, in data set [7], the “dose tolerated in mice” value came to 2.5 mg/kg. In data set [2], the “effect on NIH3T3 viability” value is “relatively minor effects”. Also, the “toxicity in CD138− bone marrow progenitor compartment” value in data set [8] is given as “only modest toxicity”.
